# Measured values reported in US8435978B2, “Substituted sulfonamide compounds” (Gruenenthal GmbH, priority 2006, dated 2013).
# Tests used:
# [1] = target: T1, human B1R receptor (Homo sapiens, UniProt P46663); experiment: Functional study on the bradykinin receptor 1 (B1R), FLIPR Ca2+ assay, hB1R cells; format: cell-based; settings: CHO-K1, test substance 10 μM, agonist Lys-Des-Arg9-bradykinin 0.5 nM, % inhibition compared with the maximum achievable inhibition, read-out: B1R Antagonism, human [10 μM] % Inhibition
# T1 construct: host or cells: CHO K1 cells (Chinese hamster ovary), stably transfected
# T1 sequence (P46663 1-353): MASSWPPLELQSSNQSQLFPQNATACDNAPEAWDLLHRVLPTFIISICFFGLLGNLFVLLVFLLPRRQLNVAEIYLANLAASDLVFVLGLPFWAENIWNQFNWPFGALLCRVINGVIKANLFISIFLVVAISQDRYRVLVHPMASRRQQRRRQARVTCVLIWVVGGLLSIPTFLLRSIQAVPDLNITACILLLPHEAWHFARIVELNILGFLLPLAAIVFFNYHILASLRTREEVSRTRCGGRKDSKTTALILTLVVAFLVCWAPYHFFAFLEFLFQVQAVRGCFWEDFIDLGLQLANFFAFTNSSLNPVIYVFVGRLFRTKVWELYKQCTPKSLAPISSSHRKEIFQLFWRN
# Protocol: (§1) The agonistic or antagonistic action of substances can be quantified on the bradykinin receptor 1 (B1R) of the species human and rat with ectopically expressing cell lines (CHO K1 cells) and with the aid of a Ca^2+-sensitive dye (Fluo-4) using a fluorescent imaging plate reader (FLIPR). The indication in % activation is based on the Ca^2+ signal after addition of Lys-Des-Arg^9-bradykinin (0.5 nM) or Des-Arg^9-bradykinin (100 nM). Antagonists result in a suppression of the Ca^2+ influx following administration of the agonist. The % inhibition in comparison with the maximum achievable inhibition is indicated.
# (§2) The agonistic or antagonistic action of substances can be determined on the bradykinin receptor 1 (B1R) of the species human and rat using the following assay. According to this assay, the Ca^2+ influx through the channel is quantified with the aid of a Ca^2+-sensitive dye (type Fluo-4, Molecular Probes Europe BV, Leiden, Netherlands) using a Fluorescent Imaging Plate Reader (FLIPR, Molecular Devices, Sunnyvale, USA).
# (§3) Chinese hamster ovary cells (CHO K1 cells) which have been stably transfected with the human B1R gene (hB1R cells, Euroscreen s.a., Gosselies, Belgium) or with the B1R gene of the rat (rB1R cells, Axxam, Milan, Italy) are used. For functional studies, the cells are plated out on black 96-well plates having a clear base (BD Biosciences, Heidelberg, Germany) in a density of 20,000-25,000 cells/well. The cells are incubated overnight at 37° C. and with 5% CO2 in culture medium (hB1R cells: Nutrient Mixture Ham's F12, Gibco Invitrogen GmbH, Karlsruhe, Germany; rB1R cells: D-MEM/F12, Gibco Invitrogen GmbH, Karlsruhe, Germany), with 10 vol. % FBS (fetal bovine serum, Gibco Invitrogen GmbH, Karlsruhe, Germany). On the following day, the cells are loaded for 60 minutes at 37° C. with 2.13 μM Fluo-4 (Molecular Probes Europe BV, Leiden, Netherlands) in HBSS buffer (Hank's buffered saline solution, Gibco Invitrogen GmbH, Karlsruhe, Germany) […] (Sigma-Aldrich, Taufkirchen, Germany) and 10 mM HEPES (Sigma-Aldrich, Taufkirchen, Germany). The plates are then washed twice with HBSS buffer, and HBSS buffer additionally containing 0.1% BSA (bovine serum albumin; Sigma-Aldrich, Taufkirchen, Germany), 5.6 mM glucose and 0.05% gelatin (Merck KGaA, Darmstadt, Germany) is added to the plates. After incubation for a further 20 minutes at room temperature, the plates are inserted into the FLIPR for Ca^2+ measurement. The Ca^2+-dependent fluorescence is measured before and after the addition of substances (λex=488 nm, λem=540 nm). Quantification is carried out by measuring the highest fluorescence intensity (FC, fluorescence counts) over time.
# (§4) The FLIPR protocol consists of 2 substance additions. Test substances (10 μM) are first pipetted onto the cells and the Ca^2+ influx is compared with the control (hB1R: Lys-Des-Arg^9-bradykinin 0.5 nM; rB1R: Des-Arg^9-bradykinin 100 nM). This gives the activation in %, based on the Ca^2+ signal after addition of Lys-Des-Arg^9-bradykinin (0.5 nM) or Des-Arg^9-bradykinin (100 nM).
# (§5) After 10 minutes' incubation, 0.5 nM Lys-Des-Arg^9-bradykinin (hB1R) or 100 nM Des-Arg^9-bradykinin (rB1R) are applied, and the influx of Ca^2+ is likewise determined. Antagonists lead to suppression of the Ca^2+ influx. The % inhibition compared with the maximum achievable inhibition is calculated.
# [2] = target: T2, B1R receptor of the rat (Rattus norvegicus, UniProt P97583); experiment: Functional study on the bradykinin receptor 1 (B1R), FLIPR Ca2+ assay, rB1R cells; format: cell-based; settings: CHO-K1, test substance 10 μM, agonist Des-Arg9-bradykinin 100 nM, % inhibition compared with the maximum achievable inhibition, read-out: B1R Antagonism, rat [10 μM] % Inhibition
# T2 construct: host or cells: CHO K1 cells (Chinese hamster ovary), stably transfected
# T2 sequence (P97583 1-337): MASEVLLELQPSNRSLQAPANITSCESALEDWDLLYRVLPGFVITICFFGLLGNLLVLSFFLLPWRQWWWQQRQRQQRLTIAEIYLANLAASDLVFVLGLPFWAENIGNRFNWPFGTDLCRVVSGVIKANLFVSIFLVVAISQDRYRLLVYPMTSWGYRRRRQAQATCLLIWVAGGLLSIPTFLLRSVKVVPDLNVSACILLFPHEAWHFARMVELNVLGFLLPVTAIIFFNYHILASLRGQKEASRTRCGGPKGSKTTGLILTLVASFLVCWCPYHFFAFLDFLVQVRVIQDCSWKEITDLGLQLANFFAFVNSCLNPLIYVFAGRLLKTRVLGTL
# Protocol: as §1, §2, §3, §4, §5
inhibition at 10 µM [1] [%],inhibition at 10 µM [2] [%],Compound
102,100,"COc1cc(C)c(S(=O)(=O)N2Cc3ccccc3CC2COCC(=O)N2CCN(CC3CCN(C)CC3)CC2)c(C)c1C (centres unmarked) [Example 563, 2-((2-(4-methoxy-2,3,6-trimethylphenylsulfonyl)-1,2,3,4-tetrahydroisoquinolin-3-yl)methoxy)-1-(4-((1-methylpiperidin-4-yl)methyl)piperazin-1-yl)ethanone]"
66,101,"O=C(COCC1CCCCN1S(=O)(=O)c1c(Cl)cccc1Cl)N1CCCC1c1cccnc1 (centres unmarked) [Example 497, 2-((1-(2,6-dichlorophenylsulfonyl)piperidin-2-yl)methoxy)-1-(2-(pyridin-3-yl)pyrrolidin-1-yl)ethanone]"
96,84.9,"COc1cc(C)c(S(=O)(=O)N2CCCC2COCC(=O)N2CCC(c3ccncc3)C2)c(C)c1 (centres unmarked) [Example 273, 2-((1-(4-methoxy-2,6-dimethylphenylsulfonyl)pyrrolidin-2-yl)methoxy)-1-(3-(pyridin-4-yl)pyrrolidin-1-yl)ethanone]"
55,80.5,"Cc1cc(C)c(S(=O)(=O)N2Cc3ccccc3CC2COCC(=O)N2CCCN(Cc3ccccc3)CC2)c(C)c1 (centres unmarked) [Example 67, 1-(4-benzyl-[1,4]diazepan-1-yl)-2-[2-(2,4,6-trimethyl-phenylsulfonyl)-1,2,3,4-tetrahydro-isoquinolin-3-ylmethoxy]-ethanone]"
100,92,"COc1cc(C)c(S(=O)(=O)N2CCCCC2COCC(=O)Nc2ccc(Cn3ccnc3)cc2)c(C)c1 (centres unmarked) [Example 420, N-(4-((1H-imidazol-1-yl)methyl)phenyl)-2-((1-(4-methoxy-2,6-dimethylphenylsulfonyl)piperidin-2-yl)methoxy)acetamide]"
82.3,101,"COc1cc(C)c(S(=O)(=O)N2CCCCC2COCC(=O)N2CCN(c3ccccn3)CC2)c(C)c1 (centres unmarked) [Example 369, 2-((1-(4-methoxy-2,6-dimethylphenylsulfonyl)piperidin-2-yl)methoxy)-1-(4-(pyridin-2-yl)piperazin-1-yl)ethanone]"
–,99,"CN1CCN(C2CCN(C(=O)COCC3CCCCN3S(=O)(=O)c3csc4ccccc34)CC2)CC1 (centres unmarked) [Example 572, 2-((1-(benzo[b]thiophen-3-ylsulfonyl)piperidin-2-yl)methoxy)-1-(4-(4-methylpiperazin-1-yl)piperidin-1-yl)ethanone]"
48.8,–,"COc1ccc(S(=O)(=O)N2CCCCC2CCOCC(=O)N2CCN(CCc3ccccc3)CC2)cc1 (centres unmarked) [Example 91, 2-(2-(1-(4-methoxyphenylsulfonyl)piperidin-2-yl)ethoxy)-1-(4-phenethylpiperazin-1-yl)ethanone]"
90,–,"CN(C(=O)COCC1CCCCN1S(=O)(=O)c1c(Cl)cc(C(F)(F)F)cc1Cl)[C@H]1CCN(Cc2ccccc2)C1 (stereo partly drawn) [Example 574, N—((S)-1-benzylpyrrolidin-3-yl)-2-((1-(2,6-dichloro-4-(trifluoromethyl)phenylsulfonyl)piperidin-2-yl)methoxy)-N-methylacetamide]"
100,–,"CN(C(=O)COCC1CCCCN1S(=O)(=O)c1ccccc1C(F)(F)F)[C@H]1CCN(Cc2ccccc2)C1 (stereo partly drawn) [Example 218, N—((S)-1-benzylpyrrolidin-3-yl)-N-methyl-2-((1-(2-(trifluoromethyl)phenylsulfonyl)piperidin-2-yl)methoxy)acetamide]"
–,101,"CN1CCC(CN2CCN(C(=O)COCC3CCCCN3S(=O)(=O)c3csc4ccccc34)CC2)CC1 (centres unmarked) [Example 573, 2-((1-(benzo[b]thiophen-3-ylsulfonyl)piperidin-2-yl)methoxy)-1-(4-((1-methylpiperidin-4-yl)methyl)piperazin-1-yl)ethanone]"
